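Step 1: Grow cells in 96-well plates. Step 2: Expose to compound for 48 hours at 5 concentrations. Step 3: Interpolate endpoints linearly; if unreached, use highest concentration. Definition used: TGI = concentration required for complete inhibition of growth.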
What was measured:
Test in all cases: NCI tumour cell line growth inhibition, 48 h
786-0 renal = test system: 786-0 renal
A498 renal = test system: A498 renal
A549 NSCLC = test system: A549 NSCLC
ACHN renal = test system: ACHN renal
BT-549 breast = test system: BT-549 breast
CAKI-1 renal = test system: CAKI-1 renal
CCRF-CEM leukemia = test system: CCRF-CEM leukemia
COLO 205 colon = test system: COLO 205 colon
DU-145 prostate = test system: DU-145 prostate
EKVX NSCLC = test system: EKVX NSCLC
HCC-2998 colon = test system: HCC-2998 colon
HCT-116 colon = test system: HCT-116 colon
HCT-15 colon = test system: HCT-15 colon
HL-60(TB) leukemia = test system: HL-60(TB) leukemia
HOP-62 NSCLC = test system: HOP-62 NSCLC
HOP-92 NSCLC = test system: HOP-92 NSCLC
HS 578T breast = test system: HS 578T breast
HT29 colon = test system: HT29 colon
IGROV1 ovarian = test system: IGROV1 ovarian
K-562 leukemia = test system: K-562 leukemia
KM12 colon = test system: KM12 colon
LOX IMVI melanoma = test system: LOX IMVI melanoma
MALME-3M melanoma = test system: MALME-3M melanoma
MCF7 breast = test system: MCF7 breast
MDA-MB-231 breast = test system: MDA-MB-231 breast
MDA-MB-435 = test system: MDA-MB-435
MDA-N = test system: MDA-N
MOLT-4 leukemia = test system: MOLT-4 leukemia
NCI-H226 lung = test system: NCI-H226 lung
NCI-H23 lung = test system: NCI-H23 lung
NCI-H460 lung = test system: NCI-H460 lung
NCI-H522 lung = test system: NCI-H522 lung
NCI/ADR-RES ovarian = test system: NCI/ADR-RES ovarian
OVCAR-3 ovarian = test system: OVCAR-3 ovarian
OVCAR-4 ovarian = test system: OVCAR-4 ovarian
OVCAR-8 ovarian = test system: OVCAR-8 ovarian
PC-3 prostate = test system: PC-3 prostate
RPMI-8226 leukemia = test system: RPMI-8226 leukemia
RXF 393 renal = test system: RXF 393 renal
SF-268 CNS = test system: SF-268 CNS
SF-295 CNS = test system: SF-295 CNS
SF-539 CNS = test system: SF-539 CNS
SK-MEL-2 melanoma = test system: SK-MEL-2 melanoma
SK-MEL-28 melanoma = test system: SK-MEL-28 melanoma
SK-MEL-5 melanoma = test system: SK-MEL-5 melanoma
SN12C renal = test system: SN12C renal
SNB-75 CNS = test system: SNB-75 CNS
SR leukemia = test system: SR leukemia
TK-10 renal = test system: TK-10 renal
U251 CNS = test system: U251 CNS
UO-31 renal = test system: UO-31 renal
M14 melanoma = test system: M14 melanoma
OVCAR-5 ovarian = test system: OVCAR-5 ovarian
SK-OV-3 ovarian = test system: SK-OV-3 ovarian
SNB-19 CNS = test system: SNB-19 CNS
SW-620 colon = test system: SW-620 colon
UACC-257 melanoma = test system: UACC-257 melanoma
UACC-62 melanoma = test system: UACC-62 melanoma
T-47D breast = test system: T-47D breast

Measured: TGI

CS(=O)(=O)N1CC(CI)c2ccc(O)cc21 (centres undefined)
3.26 µM: SK-MEL-5 melanoma
14.4 µM: EKVX NSCLC
11.6 µM: UO-31 renal
4.69 µM: HCC-2998 colon
4.43 µM: MALME-3M melanoma
8.53 µM: MDA-MB-231 breast
5.95 µM: OVCAR-4 ovarian
17 µM: A549 NSCLC
15.1 µM: MCF7 breast
15.8 µM: SN12C renal
7.3 µM: TK-10 renal
14.3 µM: SK-MEL-28 melanoma
7.71 µM: OVCAR-3 ovarian
11.7 µM: OVCAR-8 ovarian
12.6 µM: HCT-116 colon
6.4 µM: MDA-N
12.3 µM: COLO 205 colon | HCT-15 colon
12.7 µM: 786-0 renal
> 100 µM: HS 578T breast
15 µM: KM12 colon
7.33 µM: SR leukemia
15.6 µM: BT-549 breast
18 µM: NCI/ADR-RES ovarian
6.31 µM: HOP-92 NSCLC
24.2 µM: K-562 leukemia
15.9 µM: HT29 colon
9.65 µM: MOLT-4 leukemia
10 µM: U251 CNS
2.99 µM: NCI-H522 lung
17.2 µM: LOX IMVI melanoma
5.49 µM: SK-MEL-2 melanoma
6.51 µM: PC-3 prostate
10.7 µM: NCI-H226 lung
7.46 µM: A498 renal
17.4 µM: CCRF-CEM leukemia
8.66 µM: SF-539 CNS
6.09 µM: HL-60(TB) leukemia
4.2 µM: MDA-MB-435
7.62 µM: HOP-62 NSCLC
9.36 µM: DU-145 prostate
19.1 µM: RPMI-8226 leukemia
16.1 µM: SF-268 CNS
12.9 µM: ACHN renal | CAKI-1 renal
10.9 µM: NCI-H460 lung
6.02 µM: SNB-75 CNS
29.3 µM: IGROV1 ovarian
5.32 µM: NCI-H23 lung
13.4 µM: SF-295 CNS
3.44 µM: RXF 393 renal

O=P(O)(O)C(NCC(O)CN1CCOCC1)P(=O)(O)O (centres undefined)
not listed: OVCAR-4 ovarian | SK-MEL-2 melanoma | SN12C renal | T-47D breast
> 100 µM: all other assays above

N#Cc1nn(C(N)=O)c(N)c1C#N
not listed: HOP-92 NSCLC | LOX IMVI melanoma | MALME-3M melanoma | MDA-MB-435 | RPMI-8226 leukemia | RXF 393 renal
> 100 µM: all other assays above

— PubChem BioAssay (NCI)
